How the values were obtained:
[1] = target: T1, PRMT5/MEP50-MTA protein complex (Homo sapiens, UniProt O14744); assay: Thermal shift assay: change in melting temperature of the PRMT5/MEP50-MTA protein complex; assay type: binding; settings: compound 8 µM, PRMT5/MEP50 2 µM, MTA 2 µM; Tm minus DMSO vehicle control
T1 construct: purchased Viva Biotech
Procedure, shortened: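 Human PRMT5/MEP50 (2 µM) preincubated 30 min at room temperature in 50 mM HEPES, 10 mM DTT, 250 mM NaCl with 2 µM MTA and SYPRO Orange. Compound at 8 µM final, 10 min at room temperature, 2.5% DMSO vehicle control. Melt curve 25→95°C at 0.03°C/s gives Tm.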

[2] = test system: MTAP Knockout HCT116 cells; assay: Cell proliferation inhibition (CellTiter-Glo), MTAP knockout cells; assay type: cell-based; settings: for Selectivity: HCT116 versus MTAP Knockout HCT116; for IC50: 72-240 hours incubation, CellTiter-Glo
Source text: (§1) Test Example 2: Determination of the inhibitory effect of the compounds of the present invention on the proliferation activity of HCT116 and MTAP Knockout HCT116 cells.
(§2) 1. Experimental objective: to determine the inhibitory effect of the compound on the proliferation activity of HCT116 wild-type and HCT116 MTAP knockout cells. 2. Experimental instruments: Centrifuge (Eppendorf 5810R); microplate reader (BioTek Synergy H1 or PerkinElmer Envision); pipette (Eppendorf or Rainin). 3. Experimental reagents: HCT116 and MTAP Knockout HCT116 cells were purchased from Nanjing Cobioer; Cell Titer-Glo was purchased from Promega (Cat. No. G7573); McCoy' 5A was purchased from Gibco (Cat. No. 12330031); FBS was purchased from Gibco (Cat. No. 10091148); PBS was purchased from Gibco (Cat. No. 10010023); trypsin was purchased from Gibco (Cat. No. 25200056); cell culture plates were purchased from Corning (Cat. No. 3610). 4. Experimental methods: HCT116 and MTAP Knockout HCT116 cells were cultured in McCoy'5A medium containing 10% FBS until an appropriate cell density was reached. The cells were then collected and adjusted to a suitable concentration using complete medium. The cell suspension was seeded into a 96-well plate at 90 µL per well and allowed to adhere overnight in a 37°C, 5% CO2 incubator. Compound solutions of various concentrations were prepared using DMSO and culture medium, with a vehicle control set. The compound solutions were added to the 96-well plate at 10 µL per well, and the plate was incubated in a 37°C, 5% CO2 incubator for an additional 72-240 hours. After incubation, CellTiter-Glo solution was added, and the mixture was mixed uniformly by shaking, followed by incubation in the dark for 10 to 30 minutes. Luminescence was measured using a Synergy H1 or Envision microplate reader. 5. Experimental data processing method: The inhibition rate was calculated using the luminescence signal values, and the concentrations along with the inhibition rates were subjected to non-linear regression curve fitting using Graphpad Prism software to obtain the IC50 values.

[3] = test system: HCT116 wild-type cells; assay: Cell proliferation inhibition (CellTiter-Glo), wild-type cells; assay type: cell-based; settings: 72-240 hours incubation
Source text: as §1, §2

[4] = Pharmacokinetics in rats (plasma) after oral administration; settings: rat, 5 mg/kg
Method: (§3) Test Example 4: Determination of the pharmacokinetics of the compounds of the present invention in rats (plasma) after oral administration.
(§4) Study objective: SD rats were used as test animals to study the pharmacokinetic behaviour of the following example compounds in rats (plasma) after oral administration at a dose of 5 mg/kg. […] Test scheme 2.1 Test drugs: Vehicle formula: 0.5% CMC-Na (1% Tween 80); the examples of the present invention, prepared in house. 2.2 Test animals: 3 SD rats per group, male, purchased from Shanghai Bikai Keyi Biotechnology Co., Ltd., with animal license number (SCXK (Shanghai) 2018-0006, No.20180006037467). 2.3 Administration: 3 SD rats per group, male, were fasted overnight and then respectively administered PO at a dose of 5 mg/kg and a volume of 10 mL/kg. 2.4 Sample collection: 0.2 mL of blood was collected from the jugular vein of rats before administration and at 0, 0.25, 0.5, 1, 2, 4, 6, 8 and 24 h after administration, and placed in EDTA-K2test tubes, and the test tubes were centrifuged at 6,000 rpm at 4°C for 6 min to separate the plasma, which was stored at -80°C. The animals were fed 4 h after administration. 2.5 Sample treatment • 1) 160 uL of acetonitrile was added to 40 uL of plasma sample for precipitation, and after mixing, the mixture was centrifuged at 3,500 × g for 5-20 minutes. • 2) 100 uL of the treated supernatant solution was taken for LC/MS/MS analysis to determine the concentration of the test compounds. 2.6 Liquid phase analysis • Liquid phase conditions: Shimadzu LC-20AD pump; • Mass spectrometry conditions: AB Sciex API 4000 mass spectrometer; • Chromatographic column: phenomenex Gemiu 5 um C18 50 × 4.6 mm; • Mobile phase: solution A: 0.1% formic acid in water, solution B: methanol; • flow rate: 1.0 mL/min; Elution time: 0-4.0 min, with eluents as follows:
(§5) Experimental results and analysis: The main pharmacokinetic parameters were calculated using WinNonlin 8.2.

[5] = target: T2, hERG potassium channel (Homo sapiens, UniProt Q12809); assay: hERG potassium channel inhibitory activity assay (patch clamp, CHO-hERG cells); assay type: cell-based; settings: tail current, read-out: inhibitory activity (IC50) against the cardiac hERG potassium channel
T2 construct: host or cells: CHO cells stably expressing hERG (CHO-hERG)
Source text: Test Example 5: hERG potassium channel inhibitory activity assay
1. Study objective: to determine the inhibitory effect of the compound on the hERG potassium channel activity. 2. Experimental instruments and reagents: 2.1 Reagents
3. Experimental methods • 3.1 Cell culture: The CHO cells stably expressing the hERG potassium channel (CHO-hERG) used in the experiment were obtained from Sophion Bioscience (Ballerup, Denmark), and passaged and cryopreserved at WuXi AppTec Co., Ltd. in Shanghai. The CHO-hERG cells were cultured and passaged in Ham's F-12 medium containing 1 × GlutaMAX, 10% fetal bovine serum, 100 µg/mL G418 and 100 µg/mL hygromycin B at 37°C with 5% CO2. • 3.2 Preparation of intracellular and extracellular solutions: The extracellular solution was prepared once a month, and aliquoted and stored in 1 L storage bottles. The intracellular solution was prepared once every three months, and aliquoted and cryopreserved at -20°C. The intracellular solution was thawed in a 37°C water bath before the experiment and then placed in an ice bath for later use. • 3.3 Preparation of compounds: The compounds were dissolved in 100% DMSO (Sigma-Aldrich, D2650) to prepare 10 mM or 30 mM stock solutions. Before the experiment, the stock solutions of the test compounds were diluted with DMSO to prepare solutions 1000-fold or 333-fold higher than the desired test concentrations, and then further diluted 1000-fold or 333-fold with the extracellular solution to achieve the desired concentrations. • 3.4 Cell preparation: The CHO-hERG cells used in the experiment were cultured for at least two days. When the cell density reached more than 75%, the cells were digested with TrypLE, then resuspended in the extracellular solution, and centrifuged. The supernatant was discarded, and then the cells were further resuspended in 2 mL of extracellular solution for later use. 4. Experimental data processing: In data processing, the peak tail current was baseline-corrected when evaluating the hERG blocking effect. The effect of each compound at various concentrations was expressed as the inhibition rate of the tail current. IC50 values were obtained by fitting the data to the Hill equation: I/Icontrol = Bottom + (Top−Bottom)/(1+10^(∧)((LogIC50−X)*HillSlope)) [formula] • Top: maximum effect; Bottom: minimum effect; Hillslope: slope; X: concentration of the test compound. • IC50: half-maximal inhibitory concentration of the test compound on hERG. […] 5.

[6] = in vivo; settings: rat, po, 5 mg/kg
Method: as §3, §4, §5

[7] = Homo sapiens, HCT-116, MTAP Knockout HCT116 cells
[8] = Homo sapiens, HCT-116, HCT116 wild-type cells

T1 sequence (O14744 whole entry): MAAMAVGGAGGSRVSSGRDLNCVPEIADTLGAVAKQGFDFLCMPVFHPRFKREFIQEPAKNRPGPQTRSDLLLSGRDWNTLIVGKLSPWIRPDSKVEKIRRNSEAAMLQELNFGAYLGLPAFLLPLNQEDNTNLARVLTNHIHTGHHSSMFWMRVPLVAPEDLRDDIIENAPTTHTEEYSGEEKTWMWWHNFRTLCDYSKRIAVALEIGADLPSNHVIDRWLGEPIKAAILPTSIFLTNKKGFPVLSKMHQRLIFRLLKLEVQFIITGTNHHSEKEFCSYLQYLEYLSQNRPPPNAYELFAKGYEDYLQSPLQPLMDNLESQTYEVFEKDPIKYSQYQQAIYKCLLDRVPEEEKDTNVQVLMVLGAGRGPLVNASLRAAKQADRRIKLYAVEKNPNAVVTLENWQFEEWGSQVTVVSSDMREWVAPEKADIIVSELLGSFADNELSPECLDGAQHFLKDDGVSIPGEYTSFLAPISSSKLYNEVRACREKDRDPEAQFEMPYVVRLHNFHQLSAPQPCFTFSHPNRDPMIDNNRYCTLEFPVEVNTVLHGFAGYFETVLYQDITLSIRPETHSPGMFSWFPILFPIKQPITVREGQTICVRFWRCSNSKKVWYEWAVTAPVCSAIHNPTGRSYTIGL
T1 sequence (Q9BQA1 whole entry partner): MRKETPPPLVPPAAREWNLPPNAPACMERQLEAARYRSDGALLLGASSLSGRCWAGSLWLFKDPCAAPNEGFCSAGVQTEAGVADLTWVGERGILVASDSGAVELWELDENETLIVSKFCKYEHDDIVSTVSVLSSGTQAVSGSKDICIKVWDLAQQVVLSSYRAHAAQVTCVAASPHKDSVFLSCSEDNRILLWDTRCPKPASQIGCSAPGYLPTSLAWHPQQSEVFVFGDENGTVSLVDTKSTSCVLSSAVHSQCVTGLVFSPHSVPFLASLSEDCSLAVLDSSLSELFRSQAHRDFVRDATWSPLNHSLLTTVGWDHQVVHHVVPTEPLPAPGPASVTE
T2 sequence (Q12809 whole entry): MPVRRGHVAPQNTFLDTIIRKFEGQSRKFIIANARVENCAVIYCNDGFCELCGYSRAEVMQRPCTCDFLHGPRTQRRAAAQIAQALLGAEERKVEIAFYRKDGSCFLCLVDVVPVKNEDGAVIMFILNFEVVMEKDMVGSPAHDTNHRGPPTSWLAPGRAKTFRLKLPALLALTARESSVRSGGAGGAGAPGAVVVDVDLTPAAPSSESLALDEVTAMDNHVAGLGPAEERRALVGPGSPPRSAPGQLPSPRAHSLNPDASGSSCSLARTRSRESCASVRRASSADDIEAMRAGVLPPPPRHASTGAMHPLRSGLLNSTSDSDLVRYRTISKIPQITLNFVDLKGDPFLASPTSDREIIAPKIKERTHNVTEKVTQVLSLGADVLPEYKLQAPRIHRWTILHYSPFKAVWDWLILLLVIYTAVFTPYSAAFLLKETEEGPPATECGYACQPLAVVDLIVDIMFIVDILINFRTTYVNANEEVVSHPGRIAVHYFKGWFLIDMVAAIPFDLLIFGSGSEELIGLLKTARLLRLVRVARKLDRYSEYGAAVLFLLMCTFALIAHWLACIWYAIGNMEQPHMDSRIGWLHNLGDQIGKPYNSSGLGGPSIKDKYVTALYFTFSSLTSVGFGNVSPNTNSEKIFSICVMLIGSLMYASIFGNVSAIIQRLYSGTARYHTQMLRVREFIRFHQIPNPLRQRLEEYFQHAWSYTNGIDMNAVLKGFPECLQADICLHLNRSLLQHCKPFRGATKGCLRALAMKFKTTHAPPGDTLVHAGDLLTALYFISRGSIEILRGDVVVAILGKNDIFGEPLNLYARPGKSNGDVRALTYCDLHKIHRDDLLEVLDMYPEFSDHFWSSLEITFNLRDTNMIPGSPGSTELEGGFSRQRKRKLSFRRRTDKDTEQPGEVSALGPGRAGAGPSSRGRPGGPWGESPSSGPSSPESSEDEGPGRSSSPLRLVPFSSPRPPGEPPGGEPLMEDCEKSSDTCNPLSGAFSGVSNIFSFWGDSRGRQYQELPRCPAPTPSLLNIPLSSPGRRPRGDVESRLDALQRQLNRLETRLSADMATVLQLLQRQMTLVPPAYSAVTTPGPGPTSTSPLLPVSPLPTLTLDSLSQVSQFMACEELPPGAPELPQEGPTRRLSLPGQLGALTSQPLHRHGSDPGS

Compound	ΔTm at 8 µM [1] [°C]	Selectivity [2]	IC50 [2, 7] [nM]	IC50 [3, 8] [nM]	IC50 [5] [nM]	AUC(0-inf) ([4]; male, SD) [ng·h/mL]	Cmax ([4]; male, SD) [ng/mL]	MRT inf ([4]; male, SD) [h]	Tmax ([4]; male, SD) [h]	half-life ([4]; male, SD) [h]	other results
[2H]C([2H])([2H])NN(C(=O)c1cc2c3c(c(N)nc2cn1)[C@@H](C)OC3)[C@@H]1COCc2c1ccn1c(C(F)(F)F)cnc21 [Example 362-P1]	12	68	6.7	450	> 30000	–	–	–	–	–	AUC(0-inf) [4]: 8180 ng·h/mL; Cmax [4]: 2750 ng/mL; MRT inf [4]: 2.8 h; Tmax [4]: 0.7 h; half-life [4]: 2.7 h
[2H]C([2H])([2H])NN(C(=O)c1cc2c3c(c(N)nc2cn1)COC3)C1COCc2c1ccn1c(C(F)(F)F)cnc21 (centres unmarked) [Example 371, 4-Amino-N'-(methyl-d3)-N-(3-(trifluoromethyl)-7,10-dihydro-8H-imidazo[1,2-a]pyrano[3,4-c]pyridin-7-yl)-1,3-dihydrofuro[3,4-c][1,7]naphthyridine-8-carbohydrazide]	10.6	–	–	–	> 30000	3730	1050	4.4	0.5	4.4	–
CNN(C(=O)c1cc2c3c(c(N)nc2cn1)COC3)C1COc2cc(S(F)(F)(F)(F)F)ccc21 (single isomer, unassigned) [Example 372-P1]	11.6	69	12	819	–	–	–	–	–	–	AUC(0-inf) [6]: 2570 ng·h/mL; Cmax [6]: 378 ng/mL; MRT inf [6]: 4.8 h; Tmax [6]: 2.7 h; half-life [6]: 2.7 h
[2H]C([2H])([2H])NN(C(=O)c1cc2c3c(c(N)nc2cn1)COC3)C1COCc2nc(C(F)(F)F)ccc21 (centres unmarked) [Example 321]	10.9	–	–	–	> 30000	–	–	–	–	–	–
[2H]C([2H])([2H])NN(C(=O)c1cc2c(cn1)nc(N)c1cnn(C)c12)C1COCc2c1ccn1c(C(F)(F)F)cnc21 (centres unmarked) [Example 391, 4-Amino-1-methyl-N'-(methyl-d3)-N-(3-trifluoromethyl-7,10-dihydro-8H-imidazo[1,2-a]pyrano[3,4-c]pyridin-7-yl)-1H-pyrazolo[4,3-c][1,7]naphthyridine-8-carbohydrazide]	12.7	28	13	–	> 30000	11900	1690	5.8	1.5	4.4	IC50 ([3]; HCT116 wild-type cells): 358 nM
CNN(C(=O)c1cc2c3c(c(N)nc2cn1)COC3)[C@@H]1COCc2nc(S(F)(F)(F)(F)F)ccc21 [Example 374, 4-Amino-N'-methyl-N-(2-pentafluorosulphanyl-5,8-dihydro-6H-pyrano[3,4-b]pyridin-5-yl)-1,3-dihydrofuran[3,4-c][1,7]naphthyridine-8-hydrazide]	12.3	23	13	303	> 30000	–	–	–	–	–	AUC(0-inf) [4]: 1180 ng·h/mL; Cmax [4]: 652 ng/mL; MRT inf [4]: 1.9 h; Tmax [4]: 0.5 h; half-life [4]: 1.9 h
Cc1cc2nc(N)c3cncn3c2cc1C(=O)N(C1COCc2nc(C(F)(F)F)ccc21)N(C)C (centres unmarked) [Example 276, 4-Amino-N',N',7-trimethyl-N-(2-(trifluoromethyl)-5,8-dihydro-6H-pyrano[3,4-b]pyridin-5-yl)imidazo[1,5-a]quinoxaline-8-carbohydrazide]	10.4	–	–	–	> 30000	–	–	–	–	–	–
[2H]C([2H])([2H])NN(C(=O)c1cc2c(cn1)nc(N)c1cnn(C)c12)C1COCc2c1ccn1c(C(F)(F)F)cnc21 (single isomer, unassigned) [Example 391-P1]	–	14	–	–	> 30000	–	–	–	–	–	ΔTm (°C) [1]: 13.02 °C; IC50 ([2]; MTAP Knockout HCT116 cells): 8.8 nM; IC50 ([3]; HCT116 wild-type cells): 121 nM
CNN(C(=O)c1cc2c3c(c(N)nc2cn1)COC3)[C@@H]1COCc2nc(C(F)(F)F)ccc21 [Example 286-P1, (S)-4-amino-N'-methyl-N-(2-trifluoromethyl-5,8-dihydro-6H-pyrano[3,4-b]pyridin-5-yl)-1,3-dihydrofuro[3,4-c][1,7]naphthyridine-8-carbohydrazide]	11.1	118	23	2680	> 30000	1280	480	2.5	0.5	2.1	–

From patent publication EP4818177A1, “TRICYCLIC DERIVATIVE INHIBITOR, AND PREPARATION METHOD AND USE THEREFOR” (Shanghai Hansoh Biomedical Co., Ltd., priority 2023, dated 2025)
